“Also recorded” adds a separate entry of the source. Ends that are not written are not given here.
How the values were obtained:
peptide-pulsed T2 cells [1] = assay: IFN-gamma ELISPOT assay on CTLs induced with peptide-pulsed DCs; assay type: cell-based, human; conditions: for CTL inducibility / specific CTL activity of CTLs stimulated with the peptide: summary statement; for IFN-gamma production of CTLs induced with the peptide (ELISPOT): against peptide-pulsed target cells, compared with control without peptide
From the text: Monocyte-derived dendritic cells (DCs) were used as antigen-presenting cells to induce cytotoxic T lymphocyte (CTL) responses against peptides presented on human leukocyte antigen (HLA). DCs were generated in vitro as described elsewhere (Nakahara S et al., Cancer Res 2003 Jul. 15, 63(14): 4112-8). Specifically, peripheral blood mononuclear cells (PBMCs) isolated from a normal volunteer (HLA-A*0201 positive) by Ficoll-Plaque (Pharmacia) solution were separated by adherence to a plastic tissue culture dish (Becton Dickinson) so as to enrich them as the monocyte fraction. The monocyte-enriched population was cultured in the presence of 1,000 U/ml of granulocyte-macrophage colony-stimulating factor (R&D System) and 1,000 U/ml of interleukin (IL)-4 (R&D System) in AIM-V Medium (Invitrogen) containing 2% heat-inactivated autologous serum (AS). After 7 days of culture, the cytokine-induced DCs were pulsed with 20 micro-g/ml of each of the synthesized peptides in the presence of 3 micro-g/ml of beta 2-microglobulin for 3 hrs at 37 degrees C. in AIM-V Medium. The generated cells appeared to express DC-associated molecules, such as CD80, CD83, CD86 and HLA class II, on their cell surfaces (data not shown). These peptide-pulsed DCs were then inactivated by X-irradiation (20 Gy) and mixed at a 1:20 ratio with autologous CD8+ T cells, obtained by positive selection with CD8 Positive Isolation Kit (Dynal). These cultures were set up in 48-well plates (Corning); each well contained 1.5×10^4 peptide-pulsed DCs, 3×10^5 CD8+ T cells and 10 ng/ml of IL-7 (R&D System) in 0.5 ml of AIM-V/2% AS medium. Three days later, these cultures were supplemented with IL-2 (CHIRON) to a final concentration of 20 IU/ml. On days 7 and 14, the T cells were further stimulated with the autologous peptide-pulsed DCs. The DCs were prepared each time by the same way described above. CTLs were tested against peptide-pulsed T2 cells after the 3rd round of peptide stimulation on day 21 (Tanaka H et al., Br J Cancer 2001 Jan. 5, 84(1): 94-9; Umano Y et al., Br J Cancer 2001 Apr. 20, 84(8): 1052-7; Uchida N et al., Clin Cancer Res 2004 Dec. 15, 10(24): 8577-86; Suda T et al., Cancer Sci 2006 May, 97(5): 411-9; Watanabe T et al., Cancer Sci 2005 August, 96(8): 498-506).
(§1) Specifically, peptide-pulsed T2 (1×10^4/well) was prepared as stimulator cells. Cultured cells in 48 wells were used as responder cells. IFN-gamma ELISPOT assay and IFN-gamma ELISA assay were performed under manufacture procedure.

peptide-pulsed T2 cells [2] = assay: IFN-gamma ELISA assay of established CTL lines; assay type: cell-based, human; conditions: against target cells pulsed with the corresponding peptide vs without peptide pulse
Description: CTLs were expanded in culture using the method similar to the one described by Riddell et al. (Walter E A et al., N Engl J Med 1995 Oct. 19, 333(16): 1038-44; Riddell S R et al., Nat Med 1996 February, 2(2): 216-23). A total of 5×10^4 CTLs were suspended in 25 ml of AIM-V/5% AS medium with 2 kinds of human B-lymphoblastoid cell lines, inactivated by Mitomycin C, in the presence of 40 ng/ml of anti-CD3 monoclonal antibody (Pharmingen). One day after initiating the cultures, 120 IU/ml of IL-2 were added to the cultures. The cultures were fed with fresh AIM-V/5% AS medium containing 30 IU/ml of IL-2 on days 5, 8 and 11 (Tanaka H et al., Br J Cancer 2001 Jan. 5, 84(1): 94-9; Umano Y et al., Br J Cancer 2001 Apr. 20, 84(8): 1052-7; Uchida N et al., Clin Cancer Res 2004 Dec. 15, 10(24): 8577-86; Suda T et al., Cancer Sci 2006 May, 97(5): 411-9; Watanabe T et al., Cancer Sci 2005 August, 96(8): 498-506).
as §1

peptide-pulsed T2 cells [3] = assay: IFN-gamma ELISA assay of CTL clones established by limiting dilution; assay type: cell-based, human; conditions: against target cells pulsed with peptide vs not pulsed
Description: The dilutions were made to have 0.3, 1, and 3 CTLs/well in 96 round-bottomed micro titer plate (Nalge Nunc International). CTLs were cultured with 1×10^4 cells/well of 2 kinds of human B-lymphoblastoid cell lines, 30 ng/ml of anti-CD3 antibody, and 125 U/ml of IL-2 in a total of 150 micro-l/well of AIM-V Medium containing 5% AS. 50 micro-1/well of IL-2 were added to the medium 10 days later so to reach a final concentration of 125 U/ml IL-2. CTL activity was tested on the 14th day, and CTL clones were expanded using the same method as described above (Uchida N et al., Clin Cancer Res 2004 Dec. 15, 10(24): 8577-86; Suda T et al., Cancer Sci 2006 May, 97(5): 411-9; Watanabe T et al., Cancer Sci 2005 August, 96(8): 498-506).
as §1

[4] = test system: COS7 cells transfected with ECT2 and HLA-A*0201; assay: Specific CTL activity against target cells exogenously expressing ECT2 and HLA-A*0201; assay type: cell-based, African green monkey; conditions: for Specific CTL activity against COS7 cells transfected with both ECT2 and HLA-A*0201: CTL clone (SEQ ID NO: 1) or CTL line (SEQ ID NO: 21) as effector cells; for Specific CTL activity against control COS7 cells expressing either HLA-A*0201 or ECT2: controls transfected with only one gene
From the text: The cDNA encoding an open reading frame of target genes or HLA-A*0201 was amplified by PCR. The PCR-amplified product was cloned into a vector. The plasmids were transfected into COS7, which is the target genes and HLA-A*0201-null cell line, using lipofectamine 2000 (Invitrogen) according to the manufacturer's recommended procedures. After 2 days from transfection, the transfected cells were harvested with versene (Invitrogen) and used as the target cells (5×10^4 cells/well) for CTL activity assay.
The established CTL lines and clones raised against these peptides was examined for the ability to recognize target cells that exogenously express ECT2 and HLA-A*0201 molecule. […] COS7 cells transfected with either full length of ECT2 or HLA-A*0201 were prepared as the controls.

1 (LLIGSTSYV) [compound 1]
CTL inducibility / specific CTL activity of CTLs stimulated with the peptide (peptide-pulsed T2 cells [1]): strong CTL inducibility

3 (FLFNDCLEI) [compound 3]
CTL inducibility / specific CTL activity of CTLs stimulated with the peptide (peptide-pulsed T2 cells [1]): strong CTL inducibility

21 (NLLIGSTSYV) [compound 21]
CTL inducibility / specific CTL activity of CTLs stimulated with the peptide (peptide-pulsed T2 cells [1]): strong CTL inducibility

FLFNDCLEI [SEQ ID NO: 3]
IFN-gamma production of CTLs induced with the peptide (ELISPOT) (peptide-pulsed T2 cells [1]): potent IFN-gamma production | CTL inducibility / specific CTL activity of CTLs stimulated with the peptide (peptide-pulsed T2 cells [1]): significant and specific CTL activity | IFN-gamma production of CTL lines stimulated with the peptide (ELISA) (peptide-pulsed T2 cells [2]): potent IFN-gamma production | IFN-gamma production of CTL clones stimulated with the peptide (ELISA) (peptide-pulsed T2 cells [3]; listed as ECT2-A02-9-664): potent IFN-gamma production

LLIGSTSYV [SEQ ID NO: 1]
IFN-gamma production of CTLs induced with the peptide (ELISPOT) (peptide-pulsed T2 cells [1]): potent IFN-gamma production | CTL inducibility / specific CTL activity of CTLs stimulated with the peptide (peptide-pulsed T2 cells [1]): significant and specific CTL activity | IFN-gamma production of CTL lines stimulated with the peptide (ELISA) (peptide-pulsed T2 cells [2]): potent IFN-gamma production | IFN-gamma production of CTL clones stimulated with the peptide (ELISA) (peptide-pulsed T2 cells [3]; listed as ECT2-A02-9-34): potent IFN-gamma production | Specific CTL activity against COS7 cells transfected with both ECT2 and HLA-A*0201 ([4]; listed as ECT2-A02-9-34): potent CTL activity; also recorded: specific CTL activity | Specific CTL activity against control COS7 cells expressing either HLA-A*0201 or ECT2 [4]: no significant specific CTL activity was detected

NLLIgSTSYV (NLLIGSTSYV; not fully specified; printed as NLLIgSTSYV) [SEQ ID NO: 21]
IFN-gamma production of CTLs induced with the peptide (ELISPOT) (peptide-pulsed T2 cells [1]): potent IFN-gamma production | CTL inducibility / specific CTL activity of CTLs stimulated with the peptide (peptide-pulsed T2 cells [1]): significant and specific CTL activity | IFN-gamma production of CTL lines stimulated with the peptide (ELISA) (peptide-pulsed T2 cells [2]): potent IFN-gamma production | Specific CTL activity against COS7 cells transfected with both ECT2 and HLA-A*0201 ([4]; listed as ECT2-A02-10-33): potent CTL activity; also recorded: specific CTL activity | Specific CTL activity against control COS7 cells expressing either HLA-A*0201 or ECT2 [4]: no significant specific CTL activity was detected
